Assay results as given in ChEMBL document CHEMBL5209583, “pH biosensor based assay for SLC9B2 using HEK-293 SLC9B2 OE cells” (2022).

Target: T1, Sodium/hydrogen exchanger 9B2 (Homo sapiens, UniProt Q86UD5)
T1 sequence (Q86UD5 whole entry): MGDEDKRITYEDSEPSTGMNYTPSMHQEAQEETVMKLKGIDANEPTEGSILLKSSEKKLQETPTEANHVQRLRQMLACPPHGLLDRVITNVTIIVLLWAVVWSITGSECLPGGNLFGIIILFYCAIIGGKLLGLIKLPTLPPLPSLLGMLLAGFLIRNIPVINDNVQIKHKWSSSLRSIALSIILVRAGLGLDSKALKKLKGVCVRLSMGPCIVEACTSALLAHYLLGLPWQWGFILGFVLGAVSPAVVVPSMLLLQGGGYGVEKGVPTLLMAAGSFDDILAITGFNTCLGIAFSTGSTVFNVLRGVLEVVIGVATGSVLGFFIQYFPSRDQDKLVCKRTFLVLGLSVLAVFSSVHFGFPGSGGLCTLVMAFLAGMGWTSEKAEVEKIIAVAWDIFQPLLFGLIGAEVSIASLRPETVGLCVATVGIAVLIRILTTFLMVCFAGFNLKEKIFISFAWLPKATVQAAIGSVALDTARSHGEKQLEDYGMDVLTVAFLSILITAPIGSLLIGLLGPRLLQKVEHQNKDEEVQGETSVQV
Assay: Inhibition of the Sodium/Hydrogen Exchanger-Like Domain-Containing Protein 2 (NHA2, SLC9B2) as assessed by a sensor pH-sensitive genetically encoded fluorescent sensor (pHAxensor) in HEK-293 cells stably transfected with SLC9B2 (PubChem AID: 1794821)
Format: functional, cell-based, HEK293

SMILES: O=C(CCc1ccc(O)cc1)c1c(O)cc(O)cc1O [PHLORETIN]
- IC50: 90 µM
